Data: patent US6492367B1, “Sulfamato hydroxamic acid metalloprotease inhibitor” (G. D. Searle & Company, priority 1999, dated 2002)

Legend:
recombinant human MMP-1 = molecular target: T1, recombinant human MMP-1 (Homo sapiens, UniProt P03956); assay: In vitro metalloprotease inhibition, fluorogenic MCA peptide substrate; conditions: Inhibition Table; room temperature, pH 7.5, 4 μM substrate
T1 sequence (P03956 100-469): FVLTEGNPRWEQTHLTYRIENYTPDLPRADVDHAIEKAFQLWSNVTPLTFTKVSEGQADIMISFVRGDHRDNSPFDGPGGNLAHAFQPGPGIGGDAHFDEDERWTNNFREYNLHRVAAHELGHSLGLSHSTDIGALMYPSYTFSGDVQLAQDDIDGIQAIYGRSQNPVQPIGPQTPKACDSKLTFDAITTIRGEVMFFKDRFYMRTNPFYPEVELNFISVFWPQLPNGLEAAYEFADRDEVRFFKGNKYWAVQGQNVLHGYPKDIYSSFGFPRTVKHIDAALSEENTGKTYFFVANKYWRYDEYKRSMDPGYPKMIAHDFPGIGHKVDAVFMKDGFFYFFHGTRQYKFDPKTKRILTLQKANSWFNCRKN
Method: The enzyme was also activated using APMA and was then purified over a hydroxamic acid column.
The enzyme substrate is a methoxycoumarin-containing polypeptide having the following sequence:
MCA-ProLeuGlyLeuDpaAlaArgNH2, wherein MCA is methoxycoumarin and Dpa is 3-(2,4-dinitrophenyl)-L-2,3-diaminopropionyl alanine.
Assays were carried out at room temperature, and dimethyl sulfoxide (DMSO) at a final concentration of 1 percent was used to dissolve inhibitor compound.
The assayed inhibitor compound in DMSO/buffer solution was compared to an equal amount of DMSO/buffer with no inhibitor as control using Microfluor T White Plates (Dynatech). The inhibitor or control solution was maintained in the plate for minutes and the substrate was added to provide a final concentration of 4 μM.

MMP-2 = molecular target: T2, MMP-2 (Homo sapiens, UniProt P08253); assay: as above; conditions: Inhibition Table; room temperature, pH 7.5, 4 μM substrate
T2 sequence (P08253 110-660): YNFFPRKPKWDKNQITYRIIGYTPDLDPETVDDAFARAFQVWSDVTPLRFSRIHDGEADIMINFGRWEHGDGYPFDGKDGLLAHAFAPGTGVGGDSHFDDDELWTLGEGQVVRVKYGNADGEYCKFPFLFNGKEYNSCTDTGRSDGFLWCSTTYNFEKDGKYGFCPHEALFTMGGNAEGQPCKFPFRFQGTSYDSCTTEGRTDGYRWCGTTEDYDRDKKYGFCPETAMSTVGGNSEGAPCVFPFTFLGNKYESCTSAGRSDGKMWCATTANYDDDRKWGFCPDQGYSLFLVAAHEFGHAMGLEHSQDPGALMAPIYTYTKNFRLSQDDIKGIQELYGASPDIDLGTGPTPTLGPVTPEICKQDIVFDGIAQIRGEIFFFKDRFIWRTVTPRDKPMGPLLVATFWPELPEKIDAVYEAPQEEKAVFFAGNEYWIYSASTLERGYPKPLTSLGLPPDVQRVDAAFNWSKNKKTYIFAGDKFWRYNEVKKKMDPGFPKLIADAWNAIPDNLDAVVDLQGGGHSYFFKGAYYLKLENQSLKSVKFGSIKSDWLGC

recombinant human MMP-13 = recombinant human MMP-13 (Homo sapiens, UniProt P45452); assay: as above; format: biochemical; conditions: Inhibition Table; room temperature, pH 7.5, 4 μM substrate
Method: The compounds prepared in the manner described in the Examples above were assayed for activity by an in vitro assay. Following the procedures of Knight et al., FEDS Lett. 296(3):263 (1992).
More specifically, recombinant human MMP-13 and MMP-1 enzymes were prepared in laboratories of the assignee following usual laboratory procedures. MMP-13 from a full length cDNA clone was expressed as a proenzyme using a baculovirus as discussed in V.A. Luckow, insect Cell Expression Technology, pages 183-218, in Protein Engineering: Principles and Practice, J. L. Cleland et al eds., Wiley-Liss, Inc., (1996). […]
In the absence of inhibitor activity, a fluorogenic peptide was cleaved at the gly-leu peptide bond, separating the highly fluorogenic peptide from a 2,4-dinitrophenyl quencher, resulting in an increase of fluorescence intensity (excitation at 328 nm/emission at 415 nm). Inhibition was measured as a reduction in fluorescent intensity as a function of inhibitor concentration, using a Perkin Elmer L550 plate reader. The IC50 values were calculated from those values. […]

[1] = test system: advanced, rapidly progressive, treatment-refractory solid tumor cancers (colorectal, pancreatic, ovarian, prostate); conditions: cited from earlier work

| Compound | ED50 MMP-1 (recombinant human MMP-1) | ED50 MMP-2 (MMP-2) | ED50 MMP-13 (recombinant human MMP-13) | most common drug-related toxicity ([1]; Phase I/II clinical trials) | cancer-specific antigens used as surrogate markers for biological activity ([1]; Phase I/II studies, patients with advanced solid tumor cancers) |
| --- | --- | --- | --- | --- | --- |
| 4-[[4-[[(3R,5R)-rel-3,5-Dimethyl-1-piperidinyl]carbonyl]-1-piperidinyl]sulfonyl]tetrahydro-N-hydroxy-2H-pyran-4-carboxamide and 4-[[4-[[(3R,5S)-rel-3,5-dimethyl-1-piperidinyl]carbonyl]-1-piperidinyl]sulfonyl]tetrahydro-N-hydroxy-2H-pyran-4-carboxamide [Example 49] | <10,000 nM | <10,000 nM | <10,000 nM |  |  |
| CNC(=O)[C@@H](NC(=O)[C@H](CC(C)C)[C@H](O)C(=O)NO)C(C)(C)C [marimastat, Marimastat] |  |  |  | musculoskeletal pain and stiffness | dose-related reduction in the rise of cancer-specific antigens |
